According to the NIST ThermoML archive (doi:10.1016/j.jct.2013.05.006):
± gives the expanded uncertainty stated by the source.

Assay: activity coefficient (dimensionless); of the first substance listed, at infinite dilution; xn = mol fraction of the nth substance listed
Details: 298 K; 101 kPa; Liquid; Chromatography; x1 = 0
In the case of `Fc1ccccc1` [fluorobenzene] + NC=O, the activity coefficient is reported as 54 ± 6. Compound `Brc1ccccc1` [bromobenzene] + NC=O has an activity coefficient of 107 ± 13. Compound `Clc1ccccc1Cl` [1,2-dichlorobenzene] + NC=O has an activity coefficient of 159 ± 17. In the case of `c1ccccc1` [benzene] + NC=O, the activity coefficient is reported as 53 ± 6. Compound `c1ccc2ccccc2c1` [naphthalene] + NC=O has an activity coefficient of 533 ± 63. In the case of `Clc1ccccc1` [chlorobenzene] + NC=O, the activity coefficient is reported as 94 ± 16. In the case of `c1ccc(-c2ccccc2)cc1` [biphenyl] + NC=O, the activity coefficient is reported as 1320 ± 150. `Cc1ccccc1` [toluene] + NC=O showed an activity coefficient of 81 ± 8.
